Results from patent publication US6368631B1, “Fine grain carriers and medicinal composition prepared with the use of the same” (Daiichi Pharmaceutical Co., Ltd., priority 1996, dated 2002).

Tests used:
[1] = In vivo evaluation of the complex of nanoparticles and PSP: plasma PSP concentration and pharmacokinetic parameters after duodenal administration; settings: male, SD, rats, 9.4 mg in terms of PSP per rat, n=6, mean ± S.D.
Experimental: SD male rats (7 weeks old, about 200 g) were fasted for 24 hours. Under etherization, laparotomy was performed. By use of an injection needle, which was inserted through the pyrolus, the nanoparticle preparation (0.5 ml) prepared in Example 1 or the control preparation (0.5 ml) was administered duodenumally to the rats (dose: 9.4 mg in terms of PSP per rat; n=6). The cut was closed immediately after administration. Blood was collected from the carotid artery at 0.5, 1, 2, 4, 8, 12, and 24 hours following the administration. In accordance with the method of […] (Journal of Pharmaceutical Science, 79, 334, 1990), the plasma PSP concentration of each rat was measured. The plasma (0.3 ml) that had been centrifugally separated from the collected blood, purified water (0.3 ml), and aqueous 0.1 N NaOH solution (0.9 ml) were mixed. The mixture was filtered through use of an ultrafilter membrane (molecular weight of fractionation=10,000), to thereby remove proteins, etc. The filtrate was used as a sample solution. Separately, standard solutions were prepared through use of aqueous PSP-Na solutions (starting from 9.4 mg/ml in terms of PSP, a series of 2-fold dilutions) (0.3 ml each), a blank plasma from each rat (0.3 ml), and aqueous 0.1 N NaOH solution (0.9 ml) were mixed and ultrafiltered. For each of the sample solutions and standard solutions, absorption was determined through use of a spectrometer at the wavelength of 560 nm. Based on the results obtained from the standard solutions, a calibration curve was obtained, and the plasma PSP concentrations were measured. Based on the obtained time-plasma PSP concentration profile, pharmacokinetic parameters were calculated.

[2] = tested on: ionized calcium concentration in blood; assay: In vivo evaluation of nanoparticle-sCT preparations: change of blood ionized calcium concentration after peroral administration; parameters: species or system SD male rats; settings: rats fasted 24 h, 0.5 ml preparation, single administration
Experimental: To SD male rats (7 weeks old, about 200 g) fasted for 24 hours were administered perorally the nanoparticle preparation (0.5 ml) prepared in Example 3 or the control preparation (0.5 ml) (n=5). After administration, blood was collected from the tail vein of each rat in an amount of about 60 μl at 40 minutes, 80 minutes, 2, 3, 4, 6, and 8 hours following the administration.
Using a 634 Ca^++/pH analyzer (Ciba-Coning), the concentration of ionized calcium in the collected blood was measured. The difference between the ionized calcium concentration at time 0 and that at each of the aforementioned times was calculated and plotted. From the plots, presence or absence of the effect of absorption enhancement obtained through formation of nanoparticles was determined.
In this connection, sCT is known to have the pharmacological effect of reducing the blood ionized calcium concentration.
By use of the nanoparticle preparation or the control preparation obtained in Example 7, the procedure of Example 4 was repeated to thereby determine the presence or absence of the effect of absorption enhancement obtained by the formation of nanoparticles.
By use of the nanoparticle preparation or the control preparation obtained in Example 9, the procedure of Example 4 was repeated to thereby determine the presence or absence of the effect of absorption enhancement obtained by the formation of nanoparticles. […]

Compound	AUC(0-inf) [1]	Cmax [1]	Tmax [1]	MRT last ([1]; read-out: MRT0-24 h)	effect of reducing the blood ionized calcium concentration [2]
O=S1(=O)OC(c2ccc(O)cc2)(c2ccc(O)cc2)c2ccccc21 [Aq. PSP-Na sol. (control prep.), phenolsulfonphthalein]	9970 ± 2200 ng·h/mL	2000 ± 290 ng/mL	0.92 ± 0.2 h	4.57 ± 0.34 h	–
salmon calcitonin [aqueous sCT solution]	–	–	–	–	slightly decreased
